Key:
Assay in all cases: Kinase panel profiling at 1 µmol/L (mobility shift assay, Carna)
Assay type in all cases: biochemical
Conditions in all cases: 1 µmol/L of BTK inhibitor
[1] = biological target: T1, PKCθ (Homo sapiens, UniProt Q04759)
T1 construct: purchased Carna Biosciences

[2] = biological target: T2, MST3 (Homo sapiens, UniProt Q9Y6E0)
T2 construct: purchased Carna Biosciences

[3] = biological target: T3, PIM3 (Homo sapiens, UniProt Q86V86)
T3 construct: purchased Carna Biosciences

[4] = biological target: T4, PKCι (Homo sapiens, UniProt P41743)
T4 construct: purchased Carna Biosciences
T4 sequence (P41743 1-596): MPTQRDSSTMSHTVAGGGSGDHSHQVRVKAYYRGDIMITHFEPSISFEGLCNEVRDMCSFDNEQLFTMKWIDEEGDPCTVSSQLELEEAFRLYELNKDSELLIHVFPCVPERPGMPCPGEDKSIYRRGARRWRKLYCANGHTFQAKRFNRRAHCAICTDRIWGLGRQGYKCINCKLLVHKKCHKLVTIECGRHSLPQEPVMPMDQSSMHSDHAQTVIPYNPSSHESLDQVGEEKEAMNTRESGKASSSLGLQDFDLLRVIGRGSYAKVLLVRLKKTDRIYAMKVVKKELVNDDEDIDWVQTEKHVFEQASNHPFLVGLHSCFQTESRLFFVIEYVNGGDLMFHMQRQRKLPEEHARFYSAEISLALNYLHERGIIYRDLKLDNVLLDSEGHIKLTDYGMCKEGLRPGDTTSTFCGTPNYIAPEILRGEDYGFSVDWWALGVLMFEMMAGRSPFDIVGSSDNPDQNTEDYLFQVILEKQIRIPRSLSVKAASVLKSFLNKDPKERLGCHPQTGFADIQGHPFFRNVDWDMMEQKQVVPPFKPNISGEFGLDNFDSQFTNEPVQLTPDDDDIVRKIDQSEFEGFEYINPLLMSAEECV

[5] = biological target: T5, CHK2 (Homo sapiens, UniProt O96017)
T5 construct: purchased Carna Biosciences

[6] = biological target: T6, PDHK4 (Homo sapiens, UniProt Q16654)
T6 construct: purchased Carna Biosciences

[7] = biological target: T7, PLK1 (Homo sapiens, UniProt P53350)
T7 construct: purchased Carna Biosciences

[8] = biological target: T8, TNIK (Homo sapiens, UniProt Q9UKE5)
T8 construct: purchased Carna Biosciences

[9] = biological target: T9, EPHB4 (Homo sapiens, UniProt P54760)
T9 construct: purchased Carna Biosciences
T9 sequence (P54760 16-987): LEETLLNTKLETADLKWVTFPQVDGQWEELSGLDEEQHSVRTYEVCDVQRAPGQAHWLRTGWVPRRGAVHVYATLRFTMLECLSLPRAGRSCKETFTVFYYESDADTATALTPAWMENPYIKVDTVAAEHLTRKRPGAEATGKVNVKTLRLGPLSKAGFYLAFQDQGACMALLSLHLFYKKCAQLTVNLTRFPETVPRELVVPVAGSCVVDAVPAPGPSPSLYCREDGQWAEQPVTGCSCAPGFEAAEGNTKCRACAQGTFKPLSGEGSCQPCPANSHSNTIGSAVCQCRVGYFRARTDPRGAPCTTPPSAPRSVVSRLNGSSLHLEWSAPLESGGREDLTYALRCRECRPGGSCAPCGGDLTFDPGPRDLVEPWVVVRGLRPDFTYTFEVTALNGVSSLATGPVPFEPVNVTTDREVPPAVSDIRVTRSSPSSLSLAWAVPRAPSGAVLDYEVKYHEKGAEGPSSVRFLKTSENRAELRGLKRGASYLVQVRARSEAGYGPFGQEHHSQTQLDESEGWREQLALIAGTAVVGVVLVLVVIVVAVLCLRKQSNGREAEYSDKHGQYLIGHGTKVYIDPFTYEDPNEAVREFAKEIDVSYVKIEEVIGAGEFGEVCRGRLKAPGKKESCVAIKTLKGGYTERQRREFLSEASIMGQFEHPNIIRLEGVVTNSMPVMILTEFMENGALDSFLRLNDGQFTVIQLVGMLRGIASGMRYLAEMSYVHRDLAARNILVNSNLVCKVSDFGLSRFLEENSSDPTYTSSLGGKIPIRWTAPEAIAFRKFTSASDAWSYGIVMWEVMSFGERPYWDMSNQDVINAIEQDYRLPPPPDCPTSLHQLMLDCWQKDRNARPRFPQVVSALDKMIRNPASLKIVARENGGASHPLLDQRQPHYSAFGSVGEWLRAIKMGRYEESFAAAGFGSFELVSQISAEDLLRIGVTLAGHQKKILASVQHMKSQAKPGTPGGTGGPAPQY

[10] = biological target: T10, AMPKα1/β1/γ1 (Homo sapiens, UniProt Q13131)
T10 construct: purchased Carna Biosciences

[11] = biological target: T11, PYK2 (Homo sapiens, UniProt Q14289)
T11 construct: purchased Carna Biosciences

[12] = biological target: T12, BRSK1 (Homo sapiens, UniProt Q8TDC3)
T12 construct: purchased Carna Biosciences
T12 sequence (Q8TDC3 1-778): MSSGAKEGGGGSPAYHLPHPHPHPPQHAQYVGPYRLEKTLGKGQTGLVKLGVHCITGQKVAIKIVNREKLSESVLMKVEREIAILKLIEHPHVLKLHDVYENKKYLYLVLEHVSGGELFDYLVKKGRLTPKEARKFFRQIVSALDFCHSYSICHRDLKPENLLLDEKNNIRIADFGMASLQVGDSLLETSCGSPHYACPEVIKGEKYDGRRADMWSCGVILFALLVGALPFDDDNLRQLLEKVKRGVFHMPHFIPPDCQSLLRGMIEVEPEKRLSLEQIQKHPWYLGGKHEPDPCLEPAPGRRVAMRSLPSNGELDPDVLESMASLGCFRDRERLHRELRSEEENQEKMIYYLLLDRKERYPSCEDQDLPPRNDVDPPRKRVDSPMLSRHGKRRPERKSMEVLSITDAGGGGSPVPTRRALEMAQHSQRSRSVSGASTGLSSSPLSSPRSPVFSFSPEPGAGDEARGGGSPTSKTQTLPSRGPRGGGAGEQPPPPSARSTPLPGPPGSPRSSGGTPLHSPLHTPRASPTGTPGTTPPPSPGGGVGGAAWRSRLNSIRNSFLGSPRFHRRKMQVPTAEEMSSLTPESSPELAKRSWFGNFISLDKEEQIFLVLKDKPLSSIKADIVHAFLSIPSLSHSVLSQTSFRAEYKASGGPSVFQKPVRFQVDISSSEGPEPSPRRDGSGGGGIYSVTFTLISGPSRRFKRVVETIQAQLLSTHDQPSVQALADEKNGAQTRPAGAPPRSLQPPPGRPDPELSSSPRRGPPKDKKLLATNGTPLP

T5 sequence (O96017 whole entry): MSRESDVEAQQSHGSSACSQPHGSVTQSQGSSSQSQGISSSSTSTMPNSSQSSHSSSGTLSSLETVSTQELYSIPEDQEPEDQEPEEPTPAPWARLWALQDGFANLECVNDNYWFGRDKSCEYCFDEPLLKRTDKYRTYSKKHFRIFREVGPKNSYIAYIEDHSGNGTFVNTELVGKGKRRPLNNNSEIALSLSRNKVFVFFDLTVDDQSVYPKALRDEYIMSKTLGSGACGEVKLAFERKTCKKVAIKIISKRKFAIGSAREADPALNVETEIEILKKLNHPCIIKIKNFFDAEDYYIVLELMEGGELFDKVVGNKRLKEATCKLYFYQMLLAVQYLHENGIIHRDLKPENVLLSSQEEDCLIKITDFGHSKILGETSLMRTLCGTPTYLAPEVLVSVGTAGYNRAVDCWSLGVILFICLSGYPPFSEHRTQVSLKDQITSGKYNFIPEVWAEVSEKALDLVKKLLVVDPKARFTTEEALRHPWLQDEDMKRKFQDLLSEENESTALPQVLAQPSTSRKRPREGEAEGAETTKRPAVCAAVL
T1 sequence (Q04759 whole entry): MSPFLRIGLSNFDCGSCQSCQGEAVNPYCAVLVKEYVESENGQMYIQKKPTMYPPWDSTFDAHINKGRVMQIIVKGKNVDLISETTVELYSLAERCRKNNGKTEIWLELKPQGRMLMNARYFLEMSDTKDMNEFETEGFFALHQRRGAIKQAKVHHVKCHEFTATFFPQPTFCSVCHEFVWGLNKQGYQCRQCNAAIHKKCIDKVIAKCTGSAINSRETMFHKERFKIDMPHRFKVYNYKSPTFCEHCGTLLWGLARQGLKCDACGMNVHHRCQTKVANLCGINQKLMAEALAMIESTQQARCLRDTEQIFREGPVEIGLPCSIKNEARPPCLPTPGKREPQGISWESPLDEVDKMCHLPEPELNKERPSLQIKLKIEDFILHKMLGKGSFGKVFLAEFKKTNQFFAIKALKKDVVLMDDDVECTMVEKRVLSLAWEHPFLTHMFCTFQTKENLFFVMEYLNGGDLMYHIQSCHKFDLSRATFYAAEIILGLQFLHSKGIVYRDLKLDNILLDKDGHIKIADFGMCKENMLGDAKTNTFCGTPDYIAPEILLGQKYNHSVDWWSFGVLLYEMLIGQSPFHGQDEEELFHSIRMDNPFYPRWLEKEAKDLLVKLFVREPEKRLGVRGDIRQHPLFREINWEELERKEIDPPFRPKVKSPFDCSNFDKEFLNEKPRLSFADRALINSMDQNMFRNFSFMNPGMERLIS
T11 sequence (Q14289 whole entry): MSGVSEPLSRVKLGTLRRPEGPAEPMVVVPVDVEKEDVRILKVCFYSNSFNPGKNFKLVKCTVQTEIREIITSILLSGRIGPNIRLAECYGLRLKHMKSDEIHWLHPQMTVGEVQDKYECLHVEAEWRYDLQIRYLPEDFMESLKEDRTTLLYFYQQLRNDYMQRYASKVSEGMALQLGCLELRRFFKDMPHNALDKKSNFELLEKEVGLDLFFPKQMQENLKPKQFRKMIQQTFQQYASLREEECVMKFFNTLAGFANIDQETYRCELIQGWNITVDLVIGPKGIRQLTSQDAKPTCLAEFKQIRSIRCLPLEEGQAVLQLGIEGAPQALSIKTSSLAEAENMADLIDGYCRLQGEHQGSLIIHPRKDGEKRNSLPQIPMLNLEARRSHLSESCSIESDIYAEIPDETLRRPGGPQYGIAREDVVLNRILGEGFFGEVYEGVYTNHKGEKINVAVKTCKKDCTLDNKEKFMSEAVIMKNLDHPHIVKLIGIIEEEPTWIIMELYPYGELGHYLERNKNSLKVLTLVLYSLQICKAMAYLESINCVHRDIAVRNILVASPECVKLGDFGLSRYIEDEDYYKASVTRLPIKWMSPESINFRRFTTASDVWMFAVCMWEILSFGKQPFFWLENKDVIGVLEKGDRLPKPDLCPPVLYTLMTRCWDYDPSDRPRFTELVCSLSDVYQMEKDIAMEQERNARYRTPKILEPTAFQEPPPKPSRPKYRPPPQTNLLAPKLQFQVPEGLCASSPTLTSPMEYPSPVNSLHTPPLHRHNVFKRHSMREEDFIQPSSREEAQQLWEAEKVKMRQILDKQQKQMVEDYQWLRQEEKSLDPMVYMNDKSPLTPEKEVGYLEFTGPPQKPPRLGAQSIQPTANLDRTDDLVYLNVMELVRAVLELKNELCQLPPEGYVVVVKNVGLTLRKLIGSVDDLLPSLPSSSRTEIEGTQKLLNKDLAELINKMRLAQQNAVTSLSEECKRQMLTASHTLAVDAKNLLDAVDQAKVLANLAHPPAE
T10 sequence (Q13131 whole entry): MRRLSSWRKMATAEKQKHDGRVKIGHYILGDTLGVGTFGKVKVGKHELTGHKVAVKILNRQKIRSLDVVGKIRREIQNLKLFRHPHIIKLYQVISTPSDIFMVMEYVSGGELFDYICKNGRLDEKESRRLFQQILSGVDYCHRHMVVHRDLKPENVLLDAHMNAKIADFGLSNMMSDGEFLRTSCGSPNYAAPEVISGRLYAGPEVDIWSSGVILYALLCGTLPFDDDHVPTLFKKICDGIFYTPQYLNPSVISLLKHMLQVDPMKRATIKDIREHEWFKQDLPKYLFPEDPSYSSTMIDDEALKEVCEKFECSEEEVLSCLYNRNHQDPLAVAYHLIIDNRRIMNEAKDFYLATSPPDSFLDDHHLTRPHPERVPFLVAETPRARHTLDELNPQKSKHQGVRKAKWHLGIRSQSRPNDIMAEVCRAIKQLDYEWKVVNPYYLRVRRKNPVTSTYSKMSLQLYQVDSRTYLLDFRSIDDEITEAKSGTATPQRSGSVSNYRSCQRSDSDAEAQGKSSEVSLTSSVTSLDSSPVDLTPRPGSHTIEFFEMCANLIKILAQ
T10 sequence (Q9Y478 whole entry partner): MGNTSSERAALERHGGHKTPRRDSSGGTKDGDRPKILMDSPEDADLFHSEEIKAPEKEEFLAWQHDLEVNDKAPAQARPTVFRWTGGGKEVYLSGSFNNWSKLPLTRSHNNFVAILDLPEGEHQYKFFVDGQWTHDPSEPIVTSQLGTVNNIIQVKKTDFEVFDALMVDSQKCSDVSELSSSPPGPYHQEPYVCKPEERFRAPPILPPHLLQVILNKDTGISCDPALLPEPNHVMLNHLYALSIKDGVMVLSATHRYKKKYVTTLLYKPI
T10 sequence (P54619 whole entry partner): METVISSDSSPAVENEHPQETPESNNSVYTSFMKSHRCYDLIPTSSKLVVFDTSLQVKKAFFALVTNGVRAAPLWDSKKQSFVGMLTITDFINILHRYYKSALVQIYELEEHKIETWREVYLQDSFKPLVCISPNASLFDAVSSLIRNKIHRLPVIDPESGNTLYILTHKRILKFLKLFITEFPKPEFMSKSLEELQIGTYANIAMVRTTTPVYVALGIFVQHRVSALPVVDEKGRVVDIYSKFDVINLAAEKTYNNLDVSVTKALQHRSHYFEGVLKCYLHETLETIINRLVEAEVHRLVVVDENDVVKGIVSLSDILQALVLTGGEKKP
T7 sequence (P53350 whole entry): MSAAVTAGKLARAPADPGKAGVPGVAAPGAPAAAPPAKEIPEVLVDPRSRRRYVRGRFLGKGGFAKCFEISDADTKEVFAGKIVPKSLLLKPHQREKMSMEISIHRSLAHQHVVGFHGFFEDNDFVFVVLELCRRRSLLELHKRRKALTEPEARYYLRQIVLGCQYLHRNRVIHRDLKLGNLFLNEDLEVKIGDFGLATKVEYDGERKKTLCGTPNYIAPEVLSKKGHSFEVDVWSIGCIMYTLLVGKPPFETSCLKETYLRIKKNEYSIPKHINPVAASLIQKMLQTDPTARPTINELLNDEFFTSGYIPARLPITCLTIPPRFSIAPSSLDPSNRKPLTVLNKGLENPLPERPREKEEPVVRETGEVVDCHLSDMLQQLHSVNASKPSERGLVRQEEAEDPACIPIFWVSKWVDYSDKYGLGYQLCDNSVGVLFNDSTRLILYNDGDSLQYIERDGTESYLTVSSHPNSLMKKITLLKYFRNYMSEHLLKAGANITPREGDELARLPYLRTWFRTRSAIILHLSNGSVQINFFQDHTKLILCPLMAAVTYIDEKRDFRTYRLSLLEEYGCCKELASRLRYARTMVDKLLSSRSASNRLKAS
T2 sequence (Q9Y6E0 whole entry): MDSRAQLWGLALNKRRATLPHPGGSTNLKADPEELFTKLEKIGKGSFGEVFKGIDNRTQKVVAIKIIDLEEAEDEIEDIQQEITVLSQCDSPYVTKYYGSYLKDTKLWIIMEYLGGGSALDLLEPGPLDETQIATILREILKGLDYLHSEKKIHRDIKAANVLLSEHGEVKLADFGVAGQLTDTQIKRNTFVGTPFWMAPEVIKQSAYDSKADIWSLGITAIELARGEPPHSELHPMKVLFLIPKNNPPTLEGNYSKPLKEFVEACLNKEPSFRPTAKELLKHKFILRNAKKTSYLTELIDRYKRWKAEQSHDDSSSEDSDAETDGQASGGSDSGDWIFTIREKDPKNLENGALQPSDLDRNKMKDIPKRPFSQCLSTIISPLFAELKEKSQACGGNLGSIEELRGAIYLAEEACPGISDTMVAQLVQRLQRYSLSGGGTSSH

Compound	Percentage inhibition of kinase enzyme activity [1]	Percentage inhibition of kinase enzyme activity [2]	Percentage inhibition of kinase enzyme activity [3]	Percentage inhibition of kinase enzyme activity [4]	Percentage inhibition of kinase enzyme activity [5]	Percentage inhibition of kinase enzyme activity [6]	Percentage inhibition of kinase enzyme activity [7]	Percentage inhibition of kinase enzyme activity [8]	Percentage inhibition of kinase enzyme activity [9]	Percentage inhibition of kinase enzyme activity [10]	Percentage inhibition of kinase enzyme activity [11]	Percentage inhibition of kinase enzyme activity [12]
CC#CC(=O)N1CCC[C@H]1c1nc(-c2ccc(C(=O)Nc3ccccn3)cc2)c2c(N)nccn12 [acalabrutinib]	-8.13%	-2.52%	-0.0376%	-8.38%	-5.77%	0.39%	-2.57%	-0.81%	-1.45%	-4.92%	-3.55%	-1.79%
C=CC(=O)N1CCC([C@@H]2CCNc3c(C(N)=O)c(-c4ccc(Oc5ccccc5)cc4)nn32)CC1 [zanubrutinib]	–	–	–	–	–	–	–	–	12.92%	–	16.35%	–
O=C(c1ccc(Oc2ccccc2)cc1Cl)c1c[nH]c2ncnc(N[C@@H]3CC[C@@H](CO)OC3)c12 [nemtabrutinib]	-0.21%	60.10%	-5.55%	-1.29%	49.89%	-2.73%	1.28%	85.96%	37.75%	12.21%	100.08%	12.83%
COc1ccc(F)cc1C(=O)NCc1ccc(-c2nn([C@@H](C)C(F)(F)F)c(N)c2C(N)=O)cc1 [pirtobrutinib]	4.94%	0.67%	1.44%	0.51%	7.28%	3.76%	1.53%	-3.38%	4.51%	-7.93%	7.26%	3.44%
C=CC(=O)N1CCC[C@@H](n2nc(-c3ccc(Oc4ccccc4)cc3)c3c(N)ncnc32)C1 [ibrutinib]	-1.13%	7.79%	-0.24%	2.23%	14.14%	–	-2.28%	-1.62%	26.52%	–	3.37%	-7.32%
